How the values were obtained:
[1] = molecular target: ERα ligand binding domain (Homo sapiens (Human), UniProt P03372); test: Competitive [3H]-estradiol radioligand binding, ERα (Example 21)
PPAR-γ = PPAR-γ transactivation (PPRE-LUC) in HEK-293 cells co-transfected with ER-β; assay type: cell-based; settings: FIG. 12A left panel
Experimental: (§1) FIG. 12 depict the effect of ER-β ligand on PPAR-γ function through ligand binding domain (LBD). (A). HEK-293 cells were transfected with 0.25 μg PPRE-LUC, 5 ng CMV-renilla LUC and the indicated receptors (PPAR-γ and ER-β for the left panel and PPAR-α and ER-β for the right panel). The cells were treated 24 hrs after transfection with the indicated ligands and harvested 48 hrs after transfection and firefly luciferase activity was measured and normalized to renilla luciferase. (B). H475 in ER-β LBD is important for its function. H475 in ER-β LBD was mutated to alanine (A) using a site directed mutagenesis kit. Transactivation assay was performed as described in panel A in HEK-293 cells with a titration of ER-β ligands in wild type or ER-β H475A. (C). […] The cells were treated 24 hrs after transfection with the indicated ligands and harvested 48 hrs after transfection and firefly luciferase activity was measured and normalized to renilla luciferase. […] The cells were treated 24 hrs after transfection with the indicated ligands and harvested 48 hrs after transfection and firefly luciferase activity was measured and normalized to renilla luciferase. […] The cells were treated 24 hrs after transfection with the indicated ligands and harvested 48 hrs after transfection and firefly luciferase activity was measured and normalized to renilla luciferase. […]

ER-α = ER-α (Rattus norvegicus (Rat), UniProt P06211); assay type: cell-based; settings: 100 nM NRBA compared to 1 nM estradiol
Procedure, shortened: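 COS or 293 cells in phenol red-free medium with charcoal-stripped FBS, transfected with a 2×ERE firefly luciferase reporter, CMV-Renilla control and rat-cloned receptor. Compounds, estrogen or DHT added 24 h post transfection, alone or combined; firefly and Renilla luciferase read 48 h after transfection.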

[2] = test system: LNCaP cells and human prostate stromal cells xenograft; test: LNCaP-stromal cell xenograft tumor growth; assay type: in vivo, nude mice; settings: 30 mg/kg/day for 21 days, by day 21
Experimental: Prostate tumor xenografts were established with LNCaP cells and human prostate stromal cells in nude mice to establish the in vivo anti-proliferative effects of these ER-β NRBAs. A 4:1 ratio (based on cell number) of LNCaP:stroma cells was injected subcutaneously in nude mice and allowed to grow until they attained 100 mm^3 in volume, as measured by calipers. […] Tumor volumes were measured twice a week and percent tumor volume calculated, after 10, 14 and 21 days.

PPAR-α = PPAR-α transactivation (PPRE-LUC) in HEK-293 cells co-transfected with ER-β; assay type: cell-based; settings: FIG. 12A right panel
Experimental: as §1

ARPE-19 cells = test: Fluorescent detection of intracellular ROS in ARPE-19 cells (tBH oxidative stress); settings: 150 μM tBH, FIG. 20B
C-26 colon cancer cells = test: C-26 colon cancer cell proliferation (3H thymidine incorporation); assay type: cell-based; settings: treated for 3 days, FIG. 22
Experimental: The effects of treatment of an ER-β selective NRBA of this invention on cancer cell proliferation was examined using LNCaP prostate cancer cells and C-26 colon cancer cells. LNCaP or C-26 cells were plated in growth medium in 24 well and 6 well plates, respectively. LNCaP cells were treated for 6 days and C-26 cells were treated for 3 days at the indicated concentration. ^3H thymidine incorporation was measured at the end of treatment as an indicator of cell proliferation.

ovariectomized mice = test: Ovariectomy-induced obesity model (postmenopausal obesity); assay type: in vivo, female C57BL6 mice; settings: OVX mice
Experimental: For the ovariectomy-induced obesity model, 6 week old female C57BL6 mice were sham operated or ovariectomized and the study was carried out for 9 weeks as indicated above.
Since it was shown that β-SERMs affected body composition in an animal model of high fat diet-induced obesity, they might also be effective in an animal model of postmenopausal obesity.

Sequence of ERα ligand binding domain (P03372 whole entry, looked up, species assumed, the tested form may be a part): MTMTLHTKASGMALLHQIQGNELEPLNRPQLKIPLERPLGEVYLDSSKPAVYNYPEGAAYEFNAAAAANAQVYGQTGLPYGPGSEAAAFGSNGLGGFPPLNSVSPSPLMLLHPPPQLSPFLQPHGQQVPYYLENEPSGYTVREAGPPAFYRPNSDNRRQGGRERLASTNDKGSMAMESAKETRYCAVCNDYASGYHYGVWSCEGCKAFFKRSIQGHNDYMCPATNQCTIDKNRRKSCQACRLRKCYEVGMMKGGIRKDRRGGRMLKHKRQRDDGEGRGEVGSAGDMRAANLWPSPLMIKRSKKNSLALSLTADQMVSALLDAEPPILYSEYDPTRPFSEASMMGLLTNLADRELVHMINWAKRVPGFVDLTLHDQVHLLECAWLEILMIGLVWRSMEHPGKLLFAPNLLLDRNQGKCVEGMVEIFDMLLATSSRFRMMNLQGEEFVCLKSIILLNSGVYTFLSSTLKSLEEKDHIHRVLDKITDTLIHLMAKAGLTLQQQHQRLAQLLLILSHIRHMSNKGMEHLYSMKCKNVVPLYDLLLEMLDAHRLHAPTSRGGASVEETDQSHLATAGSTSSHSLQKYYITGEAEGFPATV

O=c1c2c(O)cc(O)cc2c(Br)cn1-c1ccc(O)cc1 [Compound 12u, 4-bromo-6,8-dihydroxy-2-(4-hydroxyphenyl)isoquinolin-1(2H)-one]
Ki [1]: 32 nM
troglitazone-induced PPAR-γ activity (PPAR-γ): partially inhibited
Estradiol activity at 100 nM, ER-α (ER-α): 62%
tumor growth (percent tumor volume) [2]: inhibited the growth of tumor significantly
WY14643 induced PPAR-α transactivation (PPAR-α): did not affect
prevention of ROS formation / oxidative damage (ARPE-19 cells): did not seem to have any effect
growth of C-26 colon cancer cells (C-26 colon cancer cells): significantly inhibited the growth
body weight gain (ovariectomized mice; 9 weeks, FIG. 11A): did not inhibit body weight gain
feed consumption (ovariectomized mice; FIG. 11B): increased the feed consumption
fat mass (MRI) (ovariectomized mice; FIG. 11C left panel): completely prevented the increase in fat mass
lean mass (MRI) (ovariectomized mice; FIG. 11C right panel): significantly increased lean mass
WAT weight (ovariectomized mice; FIG. 11D): completely inhibited the WAT accrued due to OVX
uterine weight (ovariectomized mice; FIG. 11D): without affecting uterine weight

From US9623021B2, “Nuclear receptor binding agents” (GTX, Inc., priority 2007, dated 2017)
